# In US10111854B2, “Synthesis and use of amine-containing flavonoids as potent anti-leishmanial agents” (The Hong Kong Polytechnic University, priority 2014, dated 2018):
# Counter-ions that a name gives are not always drawn. Like-named read-outs stand apart in the source and are kept apart here.
# Experiments:
# [1] = system: L. donovani Ld39 promastigotes; assay: Anti-promastigote activity (MTS assay), L. donovani Ld39; type: cell-based; details: 72 hours
# Method in brief: (§1)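 Promastigotes (1×10^5 per well) in Schneider's medium pH 6.9 with 10% FBS, exposed to serial compound concentrations for 72 h at 27 °C. Viability by MTS/PMS reduction over 4 h, OD 490 nm; IC50 derived.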
# [2] = system: mouse fibroblast (L929); assay: Cytotoxicity, L929 fibroblasts; type: cell-based; details: mouse fibroblast L929
# Method: (§2) IC50 values of known antileishmanials and the amine-containing flavonoid monomers of the present invention to promastigotes (L. amazonensis LV78, L major FV1, L. donovani HU3, L. donovani 39), macrophages (Raw 264.7 and PEM) and mouse fibroblast (L929) were determined. The anti-promastigotes activities and cytotoxicity of the amine-containing flavonoid monomers of the invention are shown in Table 1.
# [3] = system: L. donovani HU3 promastigotes; assay: Anti-promastigote activity (MTS assay), L. donovani HU3; type: cell-based; details: 72 hours
# Method in brief: as §1
# [4] = system: L. amazonensis LV78 promastigotes; assay: Anti-promastigote activity (MTS assay), L. amazonensis LV78; type: cell-based; details: 72 hours
# Method in brief: as §1
# [5] = system: L. donovani HU3 amastigotes; assay: Anti-amastigote activity in infected PEM, L. donovani HU3; type: cell-based; details: for IC50: infected PEM, 3 days, Giemsa, SSG-sensitive
# Method in brief: (§3)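 Read-out was Giemsa-stained counts of amastigotes per 100 macrophages, used for IC50, after 72 h drug exposure at 37 °C of mouse peritoneal macrophages previously infected with late-log promastigotes.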
# [6] = system: L. amazonensis LV78 amastigotes; assay: Anti-amastigote activity in infected PEM, L. amazonensis LV78; type: cell-based; details: for IC50: infected PEM, 3 days, Giemsa
# Method in brief: as §3
# [7] = system: L. major FV1 promastigotes; assay: Anti-promastigote activity (MTS assay), L. major FV1; type: cell-based; details: 72 hours
# Method in brief: as §1
# [8] = system: L. donovani Ld39 amastigotes (SSG-resistant); assay: Anti-amastigote activity in infected PEM, L. donovani Ld39; type: cell-based; details: for Selective index (a)/(c): IC50 RAW264.7 over IC50 L. donovani Ld39 amastigotes; for IC50: Leishmania donovani, 72 h, infected PEM, 3 days, Giemsa, SSG-resistant
# Method in brief: as §3
# [9] = system: L. braziliensis UA847 amastigotes; assay: Anti-amastigote activity in infected PEM, L. braziliensis UA847; type: cell-based; details: Leishmania braziliensis, 72 h, 3 days, Giemsa, read-out: Anti-amastigote activity IC50, L. baziliensis UA847
# Method: (§4) Mouse peritoneal elicited macrophages (PEM) were obtained as previously described (2). A round cover slip (12 mm in diameter) was placed into each well of 24-well culture plate. Mouse PEM were resuspended in supplemented DMEM media containing 10% heat inactivated FBS (v/v), 100 U/mL penicillin and 100 μg/mL streptomycin and seeded into each well at a cell density of 1×10^5 cells per 500 μL. Macrophages were allowed to attach overnight. Non-adherent cells were removed by gentle washing with un-supplemented DMEM media twice. Adherent macrophages were infected with late-log promastigotes at a parasite-to-macrophage ratio of 20:1 overnight at 37° C. with 5% CO2. Non-internalized promastigotes were removed by washing twice with un-supplemented DMEM media. Infected macrophages were further incubated in 500 μL of supplemented DMEM media in the presence or absence of FM for 72 hours at 37° C. After incubation, cover slips were stained with Giemsa and the percentage of macrophages infected and number of amastigotes per 100 macrophages was enumerated.
# (§5) PEM cells were infected with late-log promastigotes (L. amazonensis LV78, L. braziliensis UA847, L. donovani HU3, L. donovani 39) for 24 hr at 37° C. Infected macrophages were then treated with various antileishmanials and incubated for 3 days at 37° C. After 3 days, the cover slips were stained with Giemsa. The number of amastigotes per 100 macrophages were determined and used to calculate IC50 values.
# [10] = Cytotoxicity, RAW264.7 macrophages; type: cell-based; details: mouse, RAW264.7 macrophage cells; murine macrophages RAW264.7
# Method: Promastigotes of visceral L. donovani Ld39 and LdHU3, and cutaneous L. amazonensis LV78, L. braziliensis UA847 and L. major FV1 were employed in the study. All strains were cultured in Schneider's Drosophila Medium (Invitrogen), pH 6.9 supplemented with 10% (v/v) heat inactivated fetal bovine serum (Hyclone) with 4 mM glutamine (Sigma) and 25 μg/mL gentamicin solution (Invitrogen) at 27° C. for 4 days. RAW264.7 cells were cultured in supplemented DMEM media with 10% heat inactivated FBS and 100 U/mL penicillin and 100 μg/mL of streptomycin. They were maintained at 37° C. in a humidified atmosphere with 5% CO2. The cells were split constantly after a confluent monolayer has been formed. The cells were harvested by a cell scraper.
# as §2
# [11] = system: RAW264.7 cells; assay: Reactive oxygen species (ROS) level, DCFDA, RAW264.7; type: cell-based, murine
# Method: (§6) 50,000 RAW264.7 were seeded in each well of black 96-well plates overnight. Next day, RAW264.7 cells were pre-loaded with 10 μM dichlorofluorescein diacetate (DCFDA) (Abcam) for 1 hr at 37° C. with 5% CO2. A control of non-DCFDA stained cells was also included. The DCFDA-contained supplemented DMEM media was removed. The cells were re-suspended with 10 μM or 30 μM of respective tested compounds and positive control, tert-butyl hydroperoxide. In Leishmania, 1×10^7 promastigotes were also pre-loaded with 10 μM DCFDA at 27° C. for 1 hr. After removing the DCFDA-contained media, the promastigotes were seeded into black 96-well plate and incubated with 30 μM of respective compounds or positive control. The ROS level was determined at different periods of time including 2, 4, 6, 8, 20, 46 and 72 hr using microplate reader (excitation: 485 nm and emission: […]).
# (§7) The ROS levels in both macrophage RAW264.7 and L. amazonensis promastigotes was measured by dichlorofluorescein diacetate (DCFDA) dye which is permeable to the cells. With oxidative stress, DCFDA would be oxidized to fluorescent DCF which is an indicator of intracellular ROS level. RAW cells or L. amazonensis promastigotes were pre-loaded with 10 μM of DCFDA for 1 hr, washed and exposed to 39, FM09, pentamidine and amphotericin B for different period of time (2, 4, 6, 8, 20, 46 and 72 hr). The fluorescence level was measured at the 520 nm using 485 nm as an excitation wavelength. 0.1% DMSO or 0.3% DMSO was used as a solvent control. The fluorescent value has been subtracted from non-DCFDA stained cells. The values were presented as mean±standard error of mean.
# [12] = Cytotoxicity, peritoneal elicited macrophages (PEM); type: cell-based, mouse; details: mouse, peritoneal elicited macrophages (PEM), peritoneal elicited macrophages; read-out: Cytotoxicity IC50, PEM
# [13] = system: L. amazonensis LV78 promastigotes; assay: Reactive oxygen species (ROS) level, DCFDA, promastigotes; type: cell-based; details: 30 μM
# Method: as §6, §7
# [14] = Preliminary oral bioavailability, single time point plasma concentration oral vs i.v.; type: in vivo, Balb/c mice; details: hydrochloride salt in saline, 30 minutes, dose-normalized
# Method: FM01.HCl and FM05.HCl were administered to Balb/c mice via intravenous and passive oral administration. The blood plasma was collected at 30 minutes for LC-MSMS analysis and used for preliminary oral bioavailability screening. The corresponding plasma concentration was normalized by the administered dose for oral bioavailability calculation.
# FM01 and FM05 hydrochloride salt was dissolved in saline and administered to Balb/c mice either orally or i.v. Plasma level of FM01 and FM05 was determined 30 minutes later by LC-MS and their identity confirmed by LC-MS/MS. Plasma concentration from oral feeding was divided by that obtained from i.v. administration. […] In these preliminary studies, the ratios were 45% for FM01 and 64% for FM05 (FIG. 3).
# [15] = Pharmacokinetics of FM05 hydrochloride salt, oral; type: in vivo, Balb/c mice; details: male, Balb/c, mouse, plasma, 42 mg/kg, oral, saline; for half-life: po
# Method: Based on the result of the preliminary in vivo study, FM05 hydrochloride salt was selected for further investigation. FM05 hydrochloride salt was dissolved in saline at 4 mg/ml and administered to male balb/c at 42 mg/kg. Blood plasma samples were collected at various time points for pharmacokinetics analysis (n=2 to 3 for each time point).
# [16] = Cytotoxicity, L929 fibroblasts; type: cell-based, mouse; details: mouse
# Method: as §2
# [17] = system: promastigotes (L. amazonensis LV78, L major FV1, L. donovani HU3, L. donovani 39); assay: Anti-promastigote activity, strain not given; type: cell-based; details: Leishmania amazonensis; strain not specified; read-out: IC50 against promastigotes
# Method: Anti-promastigote activity was determined according to previous procedures (1) by Cell Titer 96® Aqueous Assay (Promega) that employed a tetrazolium compound. Promastigotes were seeded into 96-well flat bottom microtiter plate at 1×10^5 cells per well in a final volume of 100 μL medium and incubated with a series of concentrations of synthetic FM. Parasites were incubated at 27° C. for 72 hours. After 72 hours of incubation, 10 μL of MTS:PMS mixture [MTS:2-(4,5-Dimethylthiazol-2-yl-)-5-[3-(carboxymethoxy)phenyl]-2-(4-sulfophenyl)-2H-tetrazolium); PMS: phenazine methosulfate both purchased from Sigma] was added into each well of microtiter plate. The plate was then incubated at 27° C. for 4 hours for color development. After 4 hours of incubation, the OD values were determined at 490 nm using automatic microtiter plate reader (Bio-Rad).
# as §2
# [18] = system: amastigotes (L. amazonensis LV78, L. braziliensis UA847, L. donovani HU3, L. donovani 39); assay: Anti-amastigote activity, strain not given; type: cell-based; details: strain not specified; visceral and cutaneous Leishmania; read-out: IC50 against amastigotes
# Method: as §4, §5
structure (smiles),measurement,setting,value
O=c1cc(-c2ccc(OCCOCCN(Cc3ccccn3)Cc3ccccn3)cc2)oc2ccccc12 [FM09.HCl],IC50,[1],0.5 ± 0.1 µM
same,IC50,[2],20.2 ± 8.4 µM
same,IC50,[3],0.2 ± 0.1 µM
same,IC50,[4],0.7 µM
same,IC50,[5],1.8 µM
same,IC50,[6],0.4 µM
same,IC50,[7],1.2 ± 0.3 µM
N=C(N)c1ccc(OCCCCCOc2ccc(C(=N)N)cc2)cc1 [Pentamidine],Selective index (a)/(c),[8],<1
same,IC50,[8],> 30 µM
same,IC50,[9],1.1 ± 0.1 µM
same,IC50,[1]; Leishmania donovani,5.3 ± 0.9 µM
same,IC50,[4]; Leishmania amazonensis,15.7 ± 5.2 µM
same,Selective index (a)/(b),[6]; IC50 RAW264.7 over IC50 L. amazonensis LV78 amastigotes,1.9
same,IC50,"[6]; Leishmania amazonensis, 72 h",15.7 ± 5.2 µM
same,IC50,[7]; Leishmania major,17.8 ± 2.2 µM
same,IC50,[10],30 ± 5 µM
same,"RAW264.7 ROS Level, Relative fold (RF)","[11]; 10 μM, 2 hr",0.9 fold
same,"RAW264.7 ROS Level, Relative fold (RF)","[11]; 10 μM, 4 hr",0.9 fold
same,"RAW264.7 ROS Level, Relative fold (RF)","[11]; 10 μM, 6 hr",0.9 fold
same,"RAW264.7 ROS Level, Relative fold (RF)","[11]; 10 μM, 8 hr",0.8 fold
same,"RAW264.7 ROS Level, Relative fold (RF)","[11]; 10 μM, 20 hr",0.8 fold
same,ROS induction in macrophages,"[11]; 10 μM, RAW264.7",No ROS induction
same,"RAW264.7 ROS Level, Relative fold (RF)","[11]; 30 μM, 2 hr",1.1 fold
same,"RAW264.7 ROS Level, Relative fold (RF)","[11]; 30 μM, 4 hr",1.2 fold
same,"RAW264.7 ROS Level, Relative fold (RF)","[11]; 30 μM, 6 hr",1.1 fold
same,"RAW264.7 ROS Level, Relative fold (RF)","[11]; 30 μM, 20 hr",0.9 fold
same,"RAW264.7 ROS Level, Relative fold (RF)","[11]; 30 μM, 46 hr",0.9 fold
same,IC50,[12],30.4 ± 11 µM
same,"L. amazon LV78 promastigote ROS Level, Relative fold (RF)",[13]; 2 hr,1.3 fold
same,"L. amazon LV78 promastigote ROS Level, Relative fold (RF)",[13]; 4 hr,1.4 fold
same,"L. amazon LV78 promastigote ROS Level, Relative fold (RF)",[13]; 6 hr,1.5 fold
same,"L. amazon LV78 promastigote ROS Level, Relative fold (RF)",[13]; 20 hr,1.8 fold
same,"L. amazon LV78 promastigote ROS Level, Relative fold (RF)",[13]; 46 hr,about 2.6 fold
same,"L. amazon LV78 promastigote ROS Level, Relative fold (RF)","[13]; 46 hr, listed as pentamidine",2.6 fold
same,"L. amazon LV78 promastigote ROS Level, Relative fold (RF)",[13]; 72 hr,~3.4 fold
"O=c1cc(-c2ccc(OCCC3CCN(Cc4ccncc4)CC3)cc2)oc2ccccc12 [FM05, 2-(4-(2-(1-(pyridin-4-ylmethyl)piperidin-4-yl)ethoxy)phenyl)-4H-chromen-4-one]",Selective index (a)/(c),[8],<3.7
same,IC50,[8],> 10 µM
same,Ratio of plasma concentration from oral feeding to i.v. administration,[14],64%
same,half-life,[15]; read-out: Half-life (Distribution and absorption),0.417 h
same,half-life,[15]; read-out: Half-life (Elimination),3.37 h
same,Cmax,[15],313 ng/mL
same,Tmax,[15],2 h
same,IC50,[1]; Leishmania donovani,0.3 ± 0.1 µM
same,IC50,[16],> 100 µM
same,IC50,[3]; Leishmania donovani,0.4 ± 0.1 µM
same,IC50,[4]; Leishmania amazonensis,5.1 ± 1 µM
same,Selective index (a)/(b),[5]; IC50 RAW264.7 over IC50 L. donovani HU3 amastigotes,10.5
same,IC50,"[5]; Leishmania donovani, 72 h",3.5 µM
same,IC50,"[6]; Leishmania amazonensis, 72 h",4.1 ± 0.9 µM
same,IC50,[7]; Leishmania major,3.9 ± 0.8 µM
same,IC50,[17],< 5 µM
same,IC50,[18],< 5 µM
